Reference: ChEMBL document CHEMBL4118281, “Azoalkyl ether imidazo[2,1-b]benzothiazoles as potentially antimicrobial agents with novel structural skeleton” (2018)
Values after ≈ are worked out from the molar mass of the structure shown. Active and inactive are the calls of the source. The calls are words filed in the database; no cut-off is given here.

Legend:
Staphylococcus aureus [1] = test: Antibacterial activity against methicillin-resistant Staphylococcus aureus N315 after 24 hrs by micro broth dilution method; format: functional; conditions: N315, 24 h
Staphylococcus aureus [2] = test: Antibacterial activity against Staphylococcus aureus ATCC 25923 after 24 hrs by micro broth dilution method; format: functional; conditions: ATCC 25923, 24 h
Bacillus subtilis = test: Antibacterial activity against Bacillus subtilis after 24 hrs by micro broth dilution method; format: functional
Micrococcus luteus = test: Antibacterial activity against Micrococcus luteus ATCC 4698 after 24 hrs by micro broth dilution method; format: functional; conditions: NCTC 2665, 24 h
Escherichia coli [3] = test: Antibacterial activity against Escherichia coli DH52 after 24 hrs by micro broth dilution method; format: functional; conditions: DH52, 24 h
Escherichia coli [4] = test: Antibacterial activity against Escherichia coli JM109 after 24 hrs by micro broth dilution method; format: functional; conditions: JM109, 24 h
Shigella dysenteriae [5] = test: Antibacterial activity against Shigella dysenteriae after 24 hrs by micro broth dilution method; format: functional
Pseudomonas aeruginosa = test: Antibacterial activity against Pseudomonas aeruginosa after 24 hrs by micro broth dilution method; format: functional
Bacillus = test: Antibacterial activity against Bacillus proteus ATCC 13315 after 24 hrs by micro broth dilution method; format: functional; conditions: ATCC 13315, 24 h
Salmonella typhi = test: Antibacterial activity against Bacillus typhi after 24 hrs by micro broth dilution method; format: functional, Salmonella enterica subsp. enterica serovar Typhi; conditions: Salmonella enterica
Staphylococcus aureus [6] = test: Antibacterial activity against methicillin-resistant Staphylococcus aureus N315 after 1 passage; format: functional
Staphylococcus aureus [7] = test: Antibacterial activity against methicillin-resistant Staphylococcus aureus N315 after 2 passages; format: functional
Staphylococcus aureus [8] = test: Antibacterial activity against methicillin-resistant Staphylococcus aureus N315 after 3 passages; format: functional
Staphylococcus aureus [9] = test: Antibacterial activity against methicillin-resistant Staphylococcus aureus N315 after 4 passages; format: functional
Staphylococcus aureus [10] = test: Antibacterial activity against methicillin-resistant Staphylococcus aureus N315 after 5 passages; format: functional
Staphylococcus aureus [11] = test: Antibacterial activity against methicillin-resistant Staphylococcus aureus N315 after 6 passages; format: functional
Staphylococcus aureus [12] = test: Antibacterial activity against methicillin-resistant Staphylococcus aureus N315 after 7 passages; format: functional
Staphylococcus aureus [13] = test: Antibacterial activity against methicillin-resistant Staphylococcus aureus N315 after 8 passages; format: functional
Candida albicans = test: Antifungal activity against Candida albicans after 24 hrs by two fold serial dilution based spectrophotometric analysis; format: functional
Pichia norvegensis = test: Antifungal activity against Candida mycoderma after 24 hrs by two fold serial dilution based spectrophotometric analysis; format: functional
Cyberlindnera jadinii = test: Antifungal activity against Candida utilis after 24 hrs by two fold serial dilution based spectrophotometric analysis; format: functional; conditions: Williopsis jadinii
Aspergillus flavus [14] = test: Antifungal activity against Aspergillus flavus after 24 hrs by two fold serial dilution based spectrophotometric analysis; format: functional
Saccharomyces cerevisiae = test: Antifungal activity against Beer yeast after 24 hrs by two fold serial dilution based spectrophotometric analysis; format: functional
Aspergillus flavus [15] = test: Potency index, ratio of fluconazole MIC to compound MIC for Aspergillus flavus; format: functional
Shigella dysenteriae [16] = test: Potency index, ratio of norfloxacin MIC to compound MIC for Shigella dysenteriae; format: functional
Shigella dysenteriae [17] = test: Potency index, ratio of chloromycin MIC to compound MIC for Shigella dysenteriae; format: functional
Staphylococcus aureus [18] = test: Potency index, ratio of norfloxacin MIC to compound MIC for methicillin-resistant Staphylococcus aureus N315; format: functional
Staphylococcus aureus [19] = test: Potency index, ratio of chloromycin MIC to compound MIC for methicillin-resistant Staphylococcus aureus N315; format: functional
Staphylococcus aureus [20] = test: Bactericidal activity against methicillin-resistant Staphylococcus aureus N315 assessed as reduction in bacterial load at 4 times MIC up to 1 hr by time kill assay; format: functional
Staphylococcus aureus [21] = test: Antibacterial activity against methicillin-resistant Staphylococcus aureus N315 after 16 passages; format: functional, organism-based
Calf thymus DNA [22] = test: Binding affinity to calf thymus DNA assessed as DNA intercalation by UV-Visible spectroscopic method; format: nucleic-acid assay; conditions: Bos taurus
Calf thymus DNA [23] = test: Binding affinity to calf thymus DNA assessed as hypsochromic shift by UV-Visible spectroscopic method; format: nucleic-acid assay; conditions: Bos taurus
Calf thymus DNA [24] = test: Binding affinity to calf thymus DNA assessed as hypochromic shift by UV-Visible spectroscopic method; format: nucleic-acid assay; conditions: Bos taurus
Calf thymus DNA [25] = test: Inhibition of neutral red binding to calf thymus DNA by UV-Visible spectroscopic method; format: nucleic-acid assay; conditions: Bos taurus
Staphylococcus aureus [26] = test: Bactericidal activity against methicillin-resistant Staphylococcus aureus N315 assessed as reduction in bacterial load at 4 times MIC after 120 mins by time kill assay (reference value: 5.77 log10CFU/ml); format: functional
Staphylococcus aureus [27] = test: Bactericidal activity against methicillin-resistant Staphylococcus aureus N315 assessed as reduction in bacterial load at 4 times MIC after 140 mins by time kill assay (reference value: 6.413 log10CFU/ml); format: functional
Staphylococcus aureus [28] = test: Bactericidal activity against methicillin-resistant Staphylococcus aureus N315 assessed as reduction in bacterial load at 4 times MIC after 160 mins by time kill assay (reference value: 7.47 log10CFU/ml); format: functional
Staphylococcus aureus [29] = test: Bactericidal activity against methicillin-resistant Staphylococcus aureus N315 assessed as reduction in bacterial load at 4 times MIC after 180 mins by time kill assay (reference value: 8.63 log10CFU/ml); format: functional
Staphylococcus aureus [30] = test: Bactericidal activity against methicillin-resistant Staphylococcus aureus N315 assessed as reduction in bacterial load at 4 times MIC after 200 mins by time kill assay (reference value: 9.84 log10CFU/ml); format: functional
Staphylococcus aureus [31] = test: Bactericidal activity against methicillin-resistant Staphylococcus aureus N315 assessed as reduction in bacterial load at 4 times MIC after 220 mins by time kill assay (reference value: 10.39 log10CFU/ml); format: functional
Staphylococcus aureus [32] = test: Bactericidal activity against methicillin-resistant Staphylococcus aureus N315 assessed as reduction in bacterial load at 4 times MIC after 240 mins by time kill assay (reference value: 10.42 log10CFU/ml); format: functional
Staphylococcus aureus [33] = test: Bactericidal activity against methicillin-resistant Staphylococcus aureus N315 assessed as reduction in bacterial load at 4 times MIC after 270 mins by time kill assay (reference value: 10.26 log10CFU/ml); format: functional

## O=C(N[C@H](CO)[C@H](O)c1ccc([N+](=O)[O-])cc1)C(Cl)Cl [CHLORAMPHENICOL]
Staphylococcus aureus [1]
  MIC: 16 µg/mL (≈ 49.5 µM)
Staphylococcus aureus [2]
  MIC: 16 µg/mL (≈ 49.5 µM)
Bacillus subtilis
  MIC: 32 µg/mL (≈ 99 µM)
Micrococcus luteus
  MIC: 8 µg/mL (≈ 24.8 µM)
Escherichia coli [3]
  MIC: 32 µg/mL (≈ 99 µM)
Escherichia coli [4]
  MIC: 32 µg/mL (≈ 99 µM)
Shigella dysenteriae [5]
  MIC: 16 µg/mL (≈ 49.5 µM)
Pseudomonas aeruginosa
  MIC: 32 µg/mL (≈ 99 µM)
Bacillus
  MIC: 32 µg/mL (≈ 99 µM)
Salmonella typhi
  MIC: 32 µg/mL (≈ 99 µM)
Staphylococcus aureus [6]
  MIC: 14 µM (≈ 4.52 µg/mL)
Staphylococcus aureus [7]
  MIC: 14 µM (≈ 4.52 µg/mL)
Staphylococcus aureus [8]
  MIC: 14 µM (≈ 4.52 µg/mL)
Staphylococcus aureus [9]
  MIC: 33 µM (≈ 10.7 µg/mL)
Staphylococcus aureus [10]
  MIC: 33 µM (≈ 10.7 µg/mL)
Staphylococcus aureus [11]
  MIC: 33 µM (≈ 10.7 µg/mL)
Staphylococcus aureus [12]
  MIC: 67 µM (≈ 21.6 µg/mL)
Staphylococcus aureus [13]
  MIC: 67 µM (≈ 21.6 µg/mL)

## BrCCCOCc1c(-c2ccccc2)nc2sc3ccccc3n12
Staphylococcus aureus [1]
  MIC: 8 µg/mL (≈ 19.9 µM)
Staphylococcus aureus [2]
  MIC: 32 µg/mL (≈ 79.7 µM)
Bacillus subtilis
  MIC: 4 µg/mL (≈ 9.97 µM)
Micrococcus luteus
  MIC: 32 µg/mL (≈ 79.7 µM)
Escherichia coli [3]
  MIC: 16 µg/mL (≈ 39.9 µM)
Escherichia coli [4]
  MIC: 32 µg/mL (≈ 79.7 µM)
Shigella dysenteriae [5]
  MIC: 4 µg/mL (≈ 9.97 µM)
Pseudomonas aeruginosa
  MIC: 8 µg/mL (≈ 19.9 µM)
Bacillus
  MIC: 16 µg/mL (≈ 39.9 µM)
Salmonella typhi
  MIC: 16 µg/mL (≈ 39.9 µM)
Candida albicans
  MIC: 4 µg/mL (≈ 9.97 µM)
Pichia norvegensis
  MIC: 32 µg/mL (≈ 79.7 µM)
Cyberlindnera jadinii
  MIC: 64 µg/mL (≈ 159 µM)
Aspergillus flavus [14]
  MIC: 4 µg/mL (≈ 9.97 µM)
Saccharomyces cerevisiae
  MIC: 8 µg/mL (≈ 19.9 µM)
Aspergillus flavus [15]
  Ratio: 64
Shigella dysenteriae [16]
  Ratio: 4
Shigella dysenteriae [17]
  Ratio: 4

## Cc1ncc([N+](=O)[O-])n1CCCOCc1c(-c2ccccc2)nc2sc3ccccc3n12
Staphylococcus aureus [1]
  MIC: 2 µg/mL (≈ 4.47 µM)
Staphylococcus aureus [2]
  MIC: 8 µg/mL (≈ 17.9 µM)
Bacillus subtilis
  MIC: 4 µg/mL (≈ 8.94 µM)
Micrococcus luteus
  MIC: 32 µg/mL (≈ 71.5 µM)
Escherichia coli [3]
  MIC: 4 µg/mL (≈ 8.94 µM)
Escherichia coli [4]
  MIC: 4 µg/mL (≈ 8.94 µM)
Shigella dysenteriae [5]
  MIC: 4 µg/mL (≈ 8.94 µM)
Pseudomonas aeruginosa
  MIC: 2 µg/mL (≈ 4.47 µM)
Bacillus
  MIC: 8 µg/mL (≈ 17.9 µM)
Salmonella typhi
  MIC: 1 µg/mL (≈ 2.23 µM)
Staphylococcus aureus [18]
  Ratio: 4 - 8
Staphylococcus aureus [19]
  Ratio: 4 - 8
Candida albicans
  MIC: 2 µg/mL (≈ 4.47 µM)
Pichia norvegensis
  MIC: 16 µg/mL (≈ 35.8 µM)
Cyberlindnera jadinii
  MIC: 32 µg/mL (≈ 71.5 µM)
Aspergillus flavus [14]
  MIC: 8 µg/mL (≈ 17.9 µM)
Saccharomyces cerevisiae
  MIC: 256 µg/mL (≈ 572 µM)
Staphylococcus aureus [20]
  Activity: >3 log10CFU/ml
Staphylococcus aureus [21]
  Activity: Active
Calf thymus DNA [22]
  Activity: Active
Calf thymus DNA [23]
  Activity: Dose-dependent effect
Calf thymus DNA [24]
  Activity: Active
Calf thymus DNA [25]
  inhibition: Active
Staphylococcus aureus [6]
  MIC: 13 µM (≈ 5.82 µg/mL)
Staphylococcus aureus [7]
  MIC: 13 µM (≈ 5.82 µg/mL)
Staphylococcus aureus [8]
  MIC: 14 µM (≈ 6.27 µg/mL)
Staphylococcus aureus [9]
  MIC: 16 µM (≈ 7.16 µg/mL)
Staphylococcus aureus [10]
  MIC: 15 µM (≈ 6.71 µg/mL)
Staphylococcus aureus [11]
  MIC: 15 µM (≈ 6.71 µg/mL)
Staphylococcus aureus [12]
  MIC: 15 µM (≈ 6.71 µg/mL)
Staphylococcus aureus [13]
  MIC: 15 µM (≈ 6.71 µg/mL)
Staphylococcus aureus [26]
  Activity: 5.77 log10CFU/ml
Staphylococcus aureus [27]
  Activity: 3.29 log10CFU/ml
Staphylococcus aureus [28]
  Activity: 1.98 log10CFU/ml
Staphylococcus aureus [29]
  Activity: 1.81 log10CFU/ml
Staphylococcus aureus [30]
  Activity: 1.74 log10CFU/ml
Staphylococcus aureus [31]
  Activity: 1.66 log10CFU/ml
Staphylococcus aureus [32]
  Activity: 1.6 log10CFU/ml
Staphylococcus aureus [33]
  Activity: 1.81 log10CFU/ml

## CCOc1ccc2c(c1)sc1nc(-c3ccccc3)c(COCCCn3c([N+](=O)[O-])cnc3C)n12
Staphylococcus aureus [1]
  MIC: 16 µg/mL (≈ 32.5 µM)
Staphylococcus aureus [2]
  MIC: 32 µg/mL (≈ 65.1 µM)
Bacillus subtilis
  MIC: 16 µg/mL (≈ 32.5 µM)
Micrococcus luteus
  MIC: 128 µg/mL (≈ 260 µM)
Escherichia coli [3]
  MIC: 16 µg/mL (≈ 32.5 µM)
Escherichia coli [4]
  MIC: 32 µg/mL (≈ 65.1 µM)
Shigella dysenteriae [5]
  MIC: 8 µg/mL (≈ 16.3 µM)
Pseudomonas aeruginosa
  MIC: 32 µg/mL (≈ 65.1 µM)
Bacillus
  MIC: 32 µg/mL (≈ 65.1 µM)
Salmonella typhi
  MIC: 8 µg/mL (≈ 16.3 µM)
Candida albicans
  MIC: 32 µg/mL (≈ 65.1 µM)
Pichia norvegensis
  MIC: 64 µg/mL (≈ 130 µM)
Cyberlindnera jadinii
  MIC: 256 µg/mL (≈ 521 µM)
Aspergillus flavus [14]
  MIC: 64 µg/mL (≈ 130 µM)
Saccharomyces cerevisiae
  MIC: 8 µg/mL (≈ 16.3 µM)

## Cc1ncc([N+](=O)[O-])n1CCCCCCCCCCOCc1c(-c2ccccc2)nc2sc3ccccc3n12
Staphylococcus aureus [1]
  MIC: 16 µg/mL (≈ 29.3 µM)
Staphylococcus aureus [2]
  MIC: 16 µg/mL (≈ 29.3 µM)
Bacillus subtilis
  MIC: 16 µg/mL (≈ 29.3 µM)
Micrococcus luteus
  MIC: 256 µg/mL (≈ 469 µM)
Escherichia coli [3]
  MIC: 16 µg/mL (≈ 29.3 µM)
Escherichia coli [4]
  MIC: 8 µg/mL (≈ 14.7 µM)
Shigella dysenteriae [5]
  MIC: 32 µg/mL (≈ 58.6 µM)
Pseudomonas aeruginosa
  MIC: 16 µg/mL (≈ 29.3 µM)
Bacillus
  MIC: 16 µg/mL (≈ 29.3 µM)
Salmonella typhi
  MIC: 64 µg/mL (≈ 117 µM)
Candida albicans
  MIC: 8 µg/mL (≈ 14.7 µM)
Pichia norvegensis
  MIC: 64 µg/mL (≈ 117 µM)
Cyberlindnera jadinii
  MIC: 128 µg/mL (≈ 235 µM)
Aspergillus flavus [14]
  MIC: 16 µg/mL (≈ 29.3 µM)
Saccharomyces cerevisiae
  MIC: 256 µg/mL (≈ 469 µM)
